Reference: DBAASP
In brackets after ≈: the same amount, converted by molar mass.

Assays:
Test in all cases: ≥ marks a high value that may be exact or a test limit, other limits are often not marked, values filed in µg/mL are converted to µM
[1] = system: Candida albicans ATCC 90028
[2] = system: Escherichia coli ATCC 25922
[3] = system: Pseudomonas aeruginosa ATCC 27853
[4] = system: Staphylococcus aureus ATCC 29213
[5] = system: Pseudomonas aeruginosa ATCC 9027
[6] = system: Staphylococcus aureus ATCC 6538
Bacillus subtilis = system: Bacillus subtilis
[7] = system: Candida albicans ATCC 2002
[8] = system: Staphylococcus aureus ATCC 2592
[9] = system: Bacillus subtilis ATCC 6633

| SMILES | MIC [5] [µM] | MIC [6] [µM] | also measured |
| --- | --- | --- | --- |
| CC[C@H](C)[C@H](NC(=O)[C@H](CCCN=C(N)N)NC(=O)[C@@H](N)CCCCN)C(=O)N[C@H](C(=O)N[C@@H](CCC(N)=O)C(=O)N[C@@H](CCCN=C(N)N)C(=O)N[C@@H](C)C(=O)N[C@@H](CCCCN)C(=O)N[C@@H](CC(=O)O)C(=O)N[C@@H](Cc1ccccc1)C(=O)N[C@@H](CC(C)C)C(=O)N[C@@H](CCCN=C(N)N)C(=O)O)C(C)C [KRIVQRAKDFLR] |  |  | MIC [1]: ≥ 40 µM; MIC [2]: 40 µM (≈ 61.2 µg/mL); MIC [3]: 40 µM (≈ 61.2 µg/mL); MIC [4]: 40 µM (≈ 61.2 µg/mL) |
| CC(C)C[C@H](NC(=O)[C@H](CCCCN)NC(=O)[C@H](CCCCN)NC(=O)[C@H](CC(C)C)NC(=O)[C@H](C)NC(=O)[C@H](CCCCN)NC(=O)[C@H](CC(C)C)NC(=O)[C@H](C)NC(=O)[C@H](CCCCN)NC(=O)[C@H](CCCCN)NC(=O)[C@H](C)NC(=O)[C@@H](N)Cc1ccccc1)C(N)=O [FAKKALKALKKL] | 73.6 (≈ 99.9 µg/mL) | 147 (≈ 200 µg/mL) |  |
| CC(C)C[C@H](NC(=O)[C@H](CCCCN)NC(=O)[C@H](C)NC(=O)[C@H](CC(C)C)NC(=O)[C@H](CCCCN)NC(=O)[C@H](CC(C)C)NC(=O)[C@H](C)NC(=O)[C@H](CC(C)C)NC(=O)[C@H](CCCCN)NC(=O)[C@H](C)NC(=O)[C@H](CC(C)C)NC(=O)[C@H](CCCCN)NC(=O)[C@H](CCCCN)NC(=O)[C@H](C)NC(=O)[C@@H](N)Cc1ccccc1)C(N)=O [FAKKLAKLALKLAKL] | 3.02 (≈ 5 µg/mL) | 3.02 (≈ 5 µg/mL) |  |
| CC[C@H](C)[C@H](NC(=O)[C@H](CCC(N)=O)NC(=O)[C@H](CCCCN)NC(=O)[C@H](Cc1c[nH]c2ccccc12)NC(=O)[C@H](CC(C)C)NC(=O)[C@H](CCC(N)=O)NC(=O)CNC(=O)[C@H](CC(C)C)NC(=O)[C@H](CCCCN)NC(=O)[C@H](C)NC(=O)[C@H](CCC(=O)O)NC(=O)[C@H](CCCCN)NC(=O)[C@@H](NC(=O)[C@H](CCSC)NC(=O)[C@@H](NC(=O)[C@@H](NC(=O)[C@@H](NC(=O)[C@@H](N)CO)[C@@H](C)CC)[C@@H](C)CC)[C@@H](C)O)[C@@H](C)O)C(=O)N[C@@H](C)C(=O)N[C@H]1CSSC[C@@H](C(=O)O)NC(=O)[C@H]([C@@H](C)O)NC(=O)[C@H](CC(N)=O)NC(=O)[C@H](Cc2ccc(O)cc2)NC(=O)[C@H](CC(C)C)NC(=O)[C@H](CCCN=C(N)N)NC1=O [SIITMTKEAKLGQLWKQIACRLYNTC] |  |  | MIC (Bacillus subtilis): ≥ 39.8 µM; MIC [7]: 19.9 µM (≈ 60 µg/mL); MIC [2]: 39.8 µM (≈ 120 µg/mL); MIC [8]: 4.98 µM (≈ 15 µg/mL) |
| CC(C)C[C@H](NC(=O)[C@H](C)NC(=O)[C@H](CC(C)C)NC(=O)[C@H](CCCCN)NC(=O)[C@H](C)NC(=O)[C@H](CC(C)C)NC(=O)[C@H](CCCCN)NC(=O)[C@H](CCCCN)NC(=O)[C@H](C)NC(=O)[C@H](CC(C)C)NC(=O)[C@H](CCCCN)NC(=O)[C@H](C)NC(=O)[C@H](CC(C)C)NC(=O)[C@H](CCCCN)NC(=O)[C@H](CCCCN)NC(=O)[C@H](C)NC(=O)[C@@H](N)C(C)C)C(N)=O [VAKKLAKLAKKLAKLAL] | 8.3 (≈ 15 µg/mL) | 2.77 (≈ 5 µg/mL) |  |
| CC[C@H](C)[C@H](NC(=O)CNC(=O)[C@H](C)NC(=O)[C@@H](NC(=O)[C@H](CC(C)C)NC(=O)CNC(=O)[C@@H]1CCCN1C(=O)[C@H](CC(C)C)NC(=O)[C@@H](N)Cc1ccccc1)[C@@H](C)CC)C(=O)N[C@@H](C)C(=O)N[C@@H](CCCCN)C(=O)N[C@@H](CCSC)C(=O)N[C@@H](CC(C)C)C(N)=O [FLPGLIAGIAKML] |  |  | MIC [9]: 18.6 µM (≈ 25 µg/mL); MIC [8]: 9.3 µM (≈ 12.5 µg/mL) |
| CC(C)C[C@H](NC(=O)[C@H](CC(C)C)NC(=O)[C@H](C)NC(=O)[C@H](CCCCN)NC(=O)[C@H](C)NC(=O)[C@H](CC(C)C)NC(=O)[C@H](CCCCN)NC(=O)[C@H](CCCCN)NC(=O)[C@H](C)NC(=O)[C@@H](N)Cc1ccccc1)C(N)=O [FAKKLAKALL] | 90.7 (≈ 99.9 µg/mL) | 90.7 (≈ 99.9 µg/mL) |  |
| CC(C)C[C@H](NC(=O)[C@H](C)NC(=O)[C@H](CCCCN)NC(=O)[C@H](CCCCN)NC(=O)[C@H](C)NC(=O)[C@H](CC(C)C)NC(=O)[C@H](CCCCN)NC(=O)[C@H](C)NC(=O)[C@H](CC(C)C)NC(=O)[C@H](CC(C)C)NC(=O)[C@H](CCCCN)NC(=O)[C@H](C)NC(=O)[C@@H](N)Cc1ccccc1)C(N)=O [FAKLLAKLAKKAL] | 35.3 (≈ 50 µg/mL) | 3.53 (≈ 5 µg/mL) |  |
| CC(C)C[C@H](NC(=O)[C@H](CCCCN)NC(=O)[C@H](CC(C)C)NC(=O)[C@H](CCCCN)NC(=O)[C@H](CC(C)C)NC(=O)[C@H](C)NC(=O)[C@H](CC(C)C)NC(=O)[C@H](C)NC(=O)[C@H](CC(C)C)NC(=O)[C@H](CC(C)C)NC(=O)[C@H](CCCCN)NC(=O)[C@H](C)NC(=O)[C@@H](N)Cc1ccccc1)C(N)=O [FAKLLALALKLKL] | > 139 | 6.94 (≈ 9.99 µg/mL) |  |
| CC(C)C[C@H](NC(=O)[C@H](C)NC(=O)[C@H](CCCCN)NC(=O)[C@H](CCCCN)NC(=O)[C@H](CC(C)C)NC(=O)[C@H](C)NC(=O)[C@H](CCCCN)NC(=O)[C@H](CCCCN)NC(=O)[C@H](CC(C)C)NC(=O)[C@H](CCCCN)NC(=O)[C@H](CCCCN)NC(=O)[C@H](CC(C)C)NC(=O)[C@H](C)NC(=O)[C@H](CCCCN)NC(=O)[C@H](CCCCN)NC(=O)[C@H](CC(C)C)NC(=O)[C@H](C)NC(=O)[C@H](CCCCN)NC(=O)[C@H](CC(C)C)NC(=O)[C@H](C)NC(=O)[C@H](CC(C)C)NC(=O)[C@H](C)NC(=O)[C@@H](N)Cc1ccccc1)C(N)=O [FALALKALKKALKKLKKALKKAL] | 39.4 (≈ 100 µg/mL) | 9.85 (≈ 25 µg/mL) |  |
